Values quoted from earlier work as cited in patent publication US20080138404A1, “EXTENDED RELEASE FORMULATIONS OF CARVEDILOL” (BIOVAIL LABORATORIES INTERNATIONAL S.R.L., priority 2006, published 2008).
Each block holds one compound with its values, some of them ahead of it.

Legend:
[1] = man
[2] = tested on: plasma protein, primarily albumin; conditions: following oral administration in healthy subjects
[3] = not given; remark: listed apart in the source

SMILES: COc1ccccc1OCCNCC(O)COc1cccc2[nH]c3ccccc3c12 (racemic) [Carvedilol]
- solubility (above a pH of 9.0): < 1 µg/mL
- saturation solubility (pH 7, room temperature): about 23 μg/ml
- colonic absorption relative to oral administration ([1]; 25 mg carvedilol gelatin suspension): about 7%
- relative absorption in the ileum in comparison with oral administration [1]: 28%
- relative absorption in the jejunum in comparison with oral administration [1]: 56%
- bound to plasma protein [2]: more than 98%
- immediate release dose recovered as unchanged drug in urine ([3]; in vivo): less than 2%
- terminal (elimination) half-life ([3]; oral, immediate release): 7 to 10 h

- higher plasma concentration in poor metabolisers compared to extensive metabolisers ([3]; in vivo): 2-3 fold
- plasma levels of R(+) relative to S(−) ([3]; in vivo, po): 2-3 times
SMILES: COc1ccccc1OCCNC[C@@H](O)COc1cccc2[nH]c3ccccc3c12 [R(+) Carvedilol]

- increase of plasma levels in poor metabolisers ([3]; in vivo): 20-25%
SMILES: COc1ccccc1OCCNC[C@H](O)COc1cccc2[nH]c3ccccc3c12 [S(−) Carvedilol]
